Assay results as given in patent publication US20130172345A1, “1-ACYL-4-(PHENOXY, BENZYLOXY, OR PHENYLAMINO)-1,2,3,4-TETRAHYDROQUINOLINE DERIVATIVES” (KOWA COMPANY, LTD., priority 2007, published 2013).
Counter-ions that a name gives are not always drawn.

Key:
[1] = test system: HepG2 cells originating from human liver cancer; assay: EPO production in HepG2 cells (EPO ELISA of culture supernatant, 4% oxygen, 48 hrs); type: cell-based; conditions: test compound 3 μM, oxygen 4%, non-stimulated state = 100%, read-out: EPO production amount, % of control (3 μM)
Description: HepG2 cells originating from human liver cancer were seeded at a density of 1×10^4 cells per well on a 24-well plate by using minimum essential medium (MEM, manufactured by Sigma) comprising 10% bovine fetal serum. Next day, the medium was exchanged with Dulbecco's modified eagle medium (DMEM, manufactured by Sigma) comprising 10% bovine fetal serum lacking phenol red. Then, the test compound dissolved in DMSO was added thereto to obtain the final concentration of 3 μM or 10 μM while having 400 μl of the medium per well. The cells were incubated for 48 hrs in a CO2 incubator which had been adjusted to have oxygen concentration of 4%, followed by collecting the culture supernatant. The EPO concentration in the culture supernatant was immediately measured by using EPO ELISA kit (manufactured by Roche Diagnostics K.K.). Specific procedures were carried out according to the manufacturer's protocol included in the kit.
When EPO production amount in non-stimulated state, i.e., without addition of any compound, was 100%, the EPO production amount induced by each compound was calculated (% of control).

[2] = test system: K562 cells, human proerythroblast cells; assay: Hemoglobin production in K562 cells (fluorescence of the porphyrin ring); type: cell-based; conditions: 144 h, test compound 6 μM, 3+3 days, non-stimulated state = 100%, read-out: production amount of hemoglobin, % of control (6 μM)
How it was run: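 K562 cells at 1×10^5 cells/mL in RPMI-1640 with 10% FBS, exposed to compound 3 days, medium exchanged, then 3 more days at 37 °C, 5% CO2. Hemoglobin from 3×10^5 cells measured as porphyrin fluorescence after boiling 30 min in 2 M oxalic acid; expressed as % of untreated control.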

SMILES	activity at 3 µM [1] [%]	activity at 6 µM [2] [%]
CC(=O)N1c2ccc(NS(C)(=O)=O)cc2C(Nc2ccc(Cl)cc2)CC1C (centres unmarked) [Compound 45, 1-acetyl-4-[(4-chlorophenyl)amino]-2-methyl-6-methanesulfonylamino-1,2,3,4-tetrahydroquinoline]	286	387
CC(=O)N1c2ccccc2C(N(C)c2ccccc2)CC1C (centres unmarked) [Compound 46, 1-acetyl-4-(N-methyl-N-phenylamino)-2-methyl-1,2,3,4-tetrahydroquinoline]	391	326
CC1CC(Nc2ccccc2)c2ccccc2N1C(=O)C1CC1 (centres unmarked) [Compound 47, 1-cyclopropanecarbonyl-2-methyl-4-phenylamino-1,2,3,4-tetrahydroquinoline]	292	701
CCOC(=O)c1ccc2c(c1)C(Oc1ccc(F)cc1)CC(C)N2C(C)=O (centres unmarked) [Compound 53, ethyl 1-acetyl-4-(4-fluorophenoxy)-2-methyl-1,2,3,4-tetrahydroquinoline-6-carboxylate]	134	307
CNC(=O)N1c2ccc(F)cc2C(Nc2ccc(F)cc2)CC1C (centres unmarked) [Compound 65, 6-fluoro-4-[(4-fluorophenyl)amino]-2-methyl-1-N-methylcarbamoyl-1,2,3,4-tetrahydroquinoline]	414	461
COCc1ccc(NC2CC(C)N(C(C)=O)c3ccccc32)cc1 (centres unmarked) [Compound 69, 1-acetyl-4-[(4-methoxymethylphenyl)amino]-2-methyl-1,2,3,4-tetrahydroquinoline]	150	407
CC(=O)N1c2ccccc2C(Nc2ccc(CC(=O)O)cc2)CC1C (centres unmarked) [Compound 71, 1-acetyl-4-[(4-carboxymethylphenyl)amino]-2-methyl-1,2,3,4-tetrahydroquinoline]	149	150
CC(=O)N1c2ccccc2C(Nc2ccccc2N2CCOCC2)CC1C (centres unmarked) [Compound 72, 1-acetyl-2-methyl-4-[(2-morpholinophenyl)amino]-1,2,3,4-tetrahydroquinoline]	243	577
CC(=O)N1c2ccc(Br)cc2C(Nc2ccc(Cl)cc2)CC1C (centres unmarked) [Compound 74, 1-acetyl-6-bromo-4-[(4-chlorophenyl)amino]-2-methyl-1,2,3,4-tetrahydroquinoline]	398	375
CC(=O)N1c2ccccc2C(Nc2ccc(CC(N)=O)cc2)CC1C (centres unmarked) [Compound 75, 1-acetyl-4-[(4-carbamoylmethylphenyl)amino]-2-methyl-1,2,3,4-tetrahydroquinoline]	346	282
CC(=O)N1c2ccccc2C(Nc2ccc(N3CCNCC3)cc2)CC1C (centres unmarked) [Compound 76, 1-acetyl-2-methyl-4-[(4-piperazinylphenyl)amino]-1,2,3,4-tetrahydroquinoline]	227	185
CC(=O)N1c2ccc(N3CCN(C(=O)C4CCCCC4)CC3)cc2C(Nc2ccc(Cl)cc2)CC1C (centres unmarked) [Compound 85, 1-acetyl-4-[(4-chlorophenyl)amino]-6-[(4-cyclohexylcarbonyl)piperazino]-2-methyl-1,2,3,4-tetrahydroquinoline]	147	189
CC(=O)N1c2ccc(C(N)=O)cc2C(Nc2ccc(N3CCOCC3)cc2)CC1C (centres unmarked) [Compound 92, 1-acetyl-2-methyl-4-[(4-morpholinophenyl)amino]-1,2,3,4-tetrahydroquinoline-6-carboxamide]	192	128
CC(=O)N1c2ccc(N)cc2C(Nc2ccc(Cl)cc2)CC1C (centres unmarked) [Compound 95, 1-acetyl-6-amino-4-[(4-chlorophenyl)amino]-2-methyl-1,2,3,4-tetrahydroquinoline]	213	158
CCOC(=O)Nc1ccc2c(c1)C(Nc1ccc(Cl)cc1)CC(C)N2C(C)=O (centres unmarked) [Compound 97, 1-acetyl-4-[(4-chlorophenyl)amino]-2-methyl-1,2,3,4-tetrahydroquinoline-6-ethylcarbamate]	264	553
CCOC(=O)c1ccc2c(c1)C(Nc1ccc(CC#N)cc1)CC(C)N2C(C)=O (centres unmarked) [Compound 103, ethyl 1-acetyl-4-[(4-cyanomethylphenyl)amino]-2-methyl-1,2,3,4-tetrahydroquinoline-6-carboxylate]	108	485
CC(=O)N1c2ccc(C(N)=O)cc2C(Nc2ccc(CC#N)cc2)CC1C (centres unmarked) [Compound 104, 1-acetyl-4-[(4-cyanomethylphenyl)amino]-2-methyl-1,2,3,4-tetrahydroquinoline-6-carboxamide]	204	536
CC(=O)N1c2cc(NS(C)(=O)=O)ccc2C(Nc2ccc(Cl)cc2)CC1C (centres unmarked) [Compound 107, 1-acetyl-4-[(4-chlorophenyl)amino]-7-methanesulfonylamino-2-methyl-1,2,3,4-tetrahydroquinoline.hydrochloride]	130	139
CC(=O)N1c2ccc(N3CCN(C(=O)C(C)C)CC3)cc2C(Nc2ccc(NS(C)(=O)=O)cc2)CC1C (centres unmarked) [Compound 111, 1-acetyl-6-[(4-isopropylcarbonyl)piperazino]-4-[(4-methanesulfonylaminophenyl)amino]-2-methyl-1,2,3,4-tetrahydroquinoline]	126	46
CC(=O)N1c2ccc(C(=O)N(C)C)cc2C(Nc2ccc(Cl)cc2)CC1C (centres unmarked) [Compound 113, 1-acetyl-4-[(4-chlorophenyl)amino]-N,N,2-trimethyl-1,2,3,4-tetrahydroquinoline-6-carboxamide]	112	163
CNC(=O)c1ccc2c(c1)C(Nc1ccc(Cl)cc1)CC(C)N2C(C)=O (centres unmarked) [Compound 114, 1-acetyl-4-[(4-chlorophenyl)amino]-N,2-dimethyl-1,2,3,4-tetrahydroquinoline-6-carboxamide]	198	152
CC(=O)N1c2ccc(-c3nnn[nH]3)cc2C(Nc2ccc(Cl)cc2)CC1C (centres unmarked) [Compound 119, 1-acetyl-4-[(4-chlorophenyl)amino]-2-methyl-6-(1H-tetrazol-5-yl)-1,2,3,4-tetrahydroquinoline]	125	124
CCOC(=O)Cc1ccc(NC2CC(C)N(C(C)=O)c3ccc(F)cc32)cc1 (centres unmarked) [Compound 122, 1-acetyl-4-[(4-ethoxycarbonylmethylphenyl)amino]-6-fluoro-2-methyl-1,2,3,4-tetrahydroquinoline]	139	213
CC(=O)N1c2ccc(F)cc2C(Nc2ccc(CC(N)=O)cc2)CC1C (centres unmarked) [Compound 124, 1-acetyl-4-[(4-carbamoylmethylphenyl)amino]-6-fluoro-2-methyl-1,2,3,4-tetrahydroquinoline]	147	119
CC(=O)N1c2ccc(F)cc2C(Nc2ccc(CC(=O)N(C)C)cc2)CC1C (centres unmarked) [Compound 125, 1-acetyl-4-[4-(N,N-dimethylaminocarbonylmethyl)phenylamino]-6-fluoro-2-methyl-1,2,3,4-tetrahydroquinoline]	148	118
